Results as given in publication PMC6001238, “Iterative Chemical Engineering of Vancomycin Leads to Novel Vancomycin Analogs With a High in Vitro Therapeutic Index” (Frontiers in Microbiology, 2018).
In brackets after ≈: the same amount, converted by molar mass. Where two headings read alike, the source gives them in different places.

How the values were obtained:
VE 157 (VanB) = test: MIC, VanB-type VRE strain VE 157; assay type: cell-based, Enterococcus; conditions: Enterococcus
Method in brief: (§1)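 Serial dilutions in broth, set up per CLSI guidance, gave the MIC. Where noted, test analogues or comparator antibiotics were combined with vancomycin at 10 μM final. Controls: ultrapure water, broth without inoculum.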

[1] = test system: L1210, CEM and HeLa cell lines; test: Cytostatic activity, average or summary over L1210, CEM and HeLa; assay type: cell-based
Method in brief: (§2)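 Readout: Coulter cell number after drug exposure at 37°C. Durations differ by line (L1210 2 days; CEM 3 days; HeLa 4 days). Stock suspension 300,000–500,000 cells/mL, diluted by mixing with compound. Endpoint: IC50 vs negative control.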

E. faecalis VRE 37 = test: MIC, broth microdilution, vancomycin-resistant E. faecalis VRE 37 (VanA); assay type: cell-based, Enterococcus faecalis
Method in brief: as §1

[2] = test system: Clostridium difficile ATJ ribotype 014/20; test: MIC, plate drop assay, C. difficile ATJ ribotype 014/20; assay type: cell-based
Method in brief: (§3)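 Twofold dilution series of test compounds were spotted onto C. difficile lawns in 0.4% BHI agar containing added calcium and magnesium salts. After overnight anaerobic incubation at 37°C, growth inhibition was scored by spot clearing; triplicate runs, ultrapure water negative control.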

S. aureus VRSA = test: MIC, broth microdilution, vancomycin-resistant S. aureus (VRSA); assay type: cell-based, Staphylococcus aureus
Method in brief: as §1

VE 148 (VanB) = test: MIC, VanB-type VRE strain VE 148; assay type: cell-based, Enterococcus; conditions: Enterococcus
Method in brief: as §1

MRSA KS2 = test: MIC, broth microdilution, MRSA KS2; assay type: cell-based, Staphylococcus aureus
Method in brief: as §1

[3] = test system: human cervix carcinoma (HeLa) cells; test: Cytostatic activity, HeLa cell proliferation; assay type: cell-based; conditions: Homo sapiens, HeLa, 96 h, read-out: Toxicity (IC50) HeLa
Method in brief: as §2

MRSA KS6 = test: MIC, broth microdilution, MRSA KS6; assay type: cell-based, Staphylococcus aureus
Method in brief: as §1

E. faecalis VSE 1 = test: MIC, broth microdilution, vancomycin-sensitive E. faecalis (VSE 1); assay type: cell-based, Enterococcus faecalis
Method in brief: as §1

33 clinical VRE isolates = test: MIC against a set of 33 clinical VRE isolates (range, MIC50, TI); assay type: cell-based, Enterococcus faecalis; conditions: VRE; for TI (IC50/MIC50): in vitro therapeutic index
Method in brief: as §1

VE 152 (VanB) = test: MIC, VanB-type VRE strain VE 152; assay type: cell-based, Enterococcus; conditions: Enterococcus
Method in brief: as §1

S. aureus VISA/HIP5827 = test: MIC, broth microdilution, vancomycin-intermediate S. aureus VISA HIP5827; assay type: cell-based, Staphylococcus aureus
Method in brief: as §1

VE 149 (VanB) = test: MIC, VanB-type VRE strain VE 149; assay type: cell-based, Enterococcus; conditions: Enterococcus
Method in brief: as §1

[4] = test system: Clostridium difficile AIU ribotype 027; test: MIC, plate drop assay, C. difficile AIU ribotype 027; assay type: cell-based
Method in brief: as §3

[5] = test system: 24 clinical MRSA isolates; test: MIC against a set of 24 clinical MRSA isolates (range, MIC50, TI); assay type: cell-based, Staphylococcus aureus
Method in brief: as §1

[6] = test system: Murine leukemia (L1210) cells; test: Cytostatic activity, L1210 cell proliferation; assay type: cell-based; conditions: Mus musculus, L1210, 48 h, read-out: Toxicity (IC50) L1210
Method in brief: as §2

[7] = test system: S. aureus VSSA (ATCC 6538); test: MIC, broth microdilution, vancomycin-sensitive S. aureus (VSSA/MSSA, ATCC 6538); assay type: cell-based, Staphylococcus aureus
Method in brief: as §1

E. faecalis VRE 53 = test: MIC, broth microdilution, vancomycin-resistant E. faecalis VRE 53 (VanA); assay type: cell-based, Enterococcus faecalis
Method in brief: as §1

[8] = test system: human T-lymphocyte (CEM) cells; test: Cytostatic activity, CEM cell proliferation; assay type: cell-based; conditions: Homo sapiens, CCRF-CEM, 72 h, read-out: Toxicity (IC50) CEM
Method in brief: as §2

VE 82 (VanC1) = test: MIC, VanC1-type VRE strain VE 82; assay type: cell-based, Enterococcus gallinarum; conditions: Enterococcus gallinarum
Method in brief: as §1

E. faecalis VRE 29 = test: MIC, broth microdilution, vancomycin-resistant E. faecalis VRE 29 (VanA); assay type: cell-based, Enterococcus faecalis
Method in brief: as §1

VE 150 (VanB) = test: MIC, VanB-type VRE strain VE 150; assay type: cell-based, Enterococcus; conditions: Enterococcus
Method in brief: as §1

E. faecalis VRE 6 = test: MIC, broth microdilution, vancomycin-resistant E. faecalis VRE 6 (VanA); assay type: cell-based, Enterococcus faecalis
Method in brief: as §1

MRSA KS89 = test: MIC, broth microdilution, MRSA KS89; assay type: cell-based, Staphylococcus aureus
Method in brief: as §1

MRSA = test: Minimum bactericidal concentration against MRSA; assay type: cell-based, Staphylococcus aureus
Protocol: Plates were incubated overnight at 37°C and colony growth was inspected.

MRSA KS1 = test: MIC, broth microdilution, MRSA KS1; assay type: cell-based, Staphylococcus aureus
Method in brief: as §1

With `CN[C@H](CC(C)C)C(=O)N[C@H]1C(=O)N[C@@H](CC(N)=O)C(=O)N[C@H]2C(=O)N[C@H]3C(=O)N[C@H](C(=O)N[C@H](C(=O)O)c4cc(O)cc(O)c4-c4cc3ccc4O)[C@H](O)c3ccc(c(Cl)c3)Oc3cc2cc(c3O[C@@H]2O[C@H](CO)[C@@H](O)[C@H](O)[C@H]2O[C@H]2C[C@](C)(N)[C@H](O)[C@H](C)O2)Oc2ccc(cc2Cl)[C@H]1O` [Vancomycin] the MIC (VE 157 (VanB)) was 100 µM (≈ 145 µg/mL), the IC50 [1] was 250 µM and the IC50 ([1]; read-out: IC50 (L1210, CEM, HeLa), depending on the cell line used) was greater than 250 µM. The IC50 ([1]; read-out: Toxicity (IC50) Average) was greater than 250 µM, the MIC (E. faecalis VRE 37; Enterococcus faecalis, VRE) was 400 µM (≈ 580 µg/mL) and the “MIC-fold improvement vs. vancomycin” value (E. faecalis VRE 37; VRE 37, ratio of MIC of vancomycin and MIC of analogue) was 1. The “MIC-fold improvement vs. vancomycin” value ([2]; C. difficile ATJ ribotype 014/20) was 1, the MIC ([2]; Clostridioides difficile, C. difficile ATJ ribotype 014/20, plate drop assay) was 35 µM (≈ 50.7 µg/mL) and the MIC (S. aureus VRSA; Staphylococcus aureus VRSA) was 100 µM (≈ 145 µg/mL). For the same compound, the “MIC-fold improvement vs. vancomycin” value (S. aureus VRSA; VRSA, ratio of MIC of vancomycin and MIC of analogue) was 1, the MIC (VE 148 (VanB)) was 100 µM (≈ 145 µg/mL) and the “MIC-fold improvement vs. vancomycin” value (MRSA KS2; MRSA KS2, ratio of MIC of vancomycin and MIC of analogue) was 1. For the same compound, the MIC (MRSA KS2; Staphylococcus aureus, MRSA) was 0.78 µM (≈ 1.13 µg/mL), the IC50 [3] was greater than 250 µM and the “MIC-fold improvement vs. vancomycin” value (MRSA KS6; MRSA KS6, ratio of MIC of vancomycin and MIC of analogue) was 1. The MIC (MRSA KS6; Staphylococcus aureus, MRSA) was 0.78 µM (≈ 1.13 µg/mL), the MICvanc/MICi (E. faecalis VSE 1; E. faecalis VSE 1, ratio of MIC of vancomycin and MIC of analogue) was 1 and the MIC (E. faecalis VSE 1; Enterococcus faecalis VSE 1 (vancomycin-sensitive), read-out: MIC) was 1.56 µM (≈ 2.26 µg/mL). The MIC (E. faecalis VSE 1; Enterococcus faecalis, VSE1) was 1.56 µM (≈ 2.26 µg/mL), the “MIC-fold improvement vs. vancomycin” value (E. faecalis VSE 1; VSE 1, ratio of MIC of vancomycin and MIC of analogue) was 1 and the MIC50 (33 clinical VRE isolates; Enterococcus) was 800 µM (≈ 1160 µg/mL). The “TI (IC50/MIC50)” value (33 clinical VRE isolates) was 0.3, the “TI (IC50/MIC50)” value (33 clinical VRE isolates; listed as vancomycin) was less than 1 and the MIC (VE 152 (VanB)) was 50 µM (≈ 72.5 µg/mL). The MIC (S. aureus VISA/HIP5827; Staphylococcus aureus, VISA) was 6.25 µM (≈ 9.06 µg/mL), the “MIC-fold improvement vs. vancomycin” value (S. aureus VISA/HIP5827; VISA/HIP5827, ratio of MIC of vancomycin and MIC of analogue) was 1 and the MIC (VE 149 (VanB)) was 50 µM (≈ 72.5 µg/mL). For the same compound, the “MIC-fold improvement vs. vancomycin” value ([4]; C. difficile AIU ribotype 027) was 1, the MIC ([4]; Clostridioides difficile, C. difficile AIU ribotype 027, plate drop assay) was 45 µM (≈ 65.2 µg/mL) and the “MIC Range” value ([5]; 24 clinical MRSA isolates) was 0.78 to 6.25 µM. For the same compound, the MIC50 ([5]; Staphylococcus aureus, MRSA) was 1.56 µM (≈ 2.26 µg/mL), the “TI (IC50/MIC50)” value ([5]; in vitro therapeutic index, MRSA) was 160 and the IC50 [6] was greater than 250 µM. For the same compound, the MIC ([7]; Staphylococcus aureus, ATCC6538) was 0.78 µM (≈ 1.13 µg/mL), the “MIC-fold improvement vs. vancomycin” value ([7]; VSSA, ratio of MIC of vancomycin and MIC of analogue) was 1 and the MICvanc/MICi (E. faecalis VRE 53; E. faecalis VRE 53, ratio of MIC of vancomycin and MIC of analogue) was 1. The MIC (E. faecalis VRE 53; Enterococcus faecalis VRE 53 (vancomycin-resistant), read-out: MIC) was 400 µM (≈ 580 µg/mL), the MIC (E. faecalis VRE 53; Enterococcus faecalis, VRE) was 400 µM (≈ 580 µg/mL) and the “MIC-fold improvement vs. vancomycin” value (E. faecalis VRE 53; VRE 53, ratio of MIC of vancomycin and MIC of analogue) was 1. The IC50 [8] was greater than 250 µM, the MIC (VE 82 (VanC1)) was 3.13 µM (≈ 4.54 µg/mL) and the MIC (E. faecalis VRE 29; Enterococcus faecalis, VRE) was 400 µM (≈ 580 µg/mL). For the same compound, the “MIC-fold improvement vs. vancomycin” value (E. faecalis VRE 29; VRE 29, ratio of MIC of vancomycin and MIC of analogue) was 1, the MIC (VE 150 (VanB)) was 100 µM (≈ 145 µg/mL) and the MICvanc/MICi (E. faecalis VRE 6; E. faecalis VRE 6, ratio of MIC of vancomycin and MIC of analogue) was 1. The MIC (E. faecalis VRE 6; Enterococcus faecalis VRE 6 (vancomycin-resistant), read-out: MIC) was 200 µM (≈ 290 µg/mL), the MIC (E. faecalis VRE 6; Enterococcus faecalis, VRE) was 200 µM (≈ 290 µg/mL) and the “MIC-fold improvement vs. vancomycin” value (E. faecalis VRE 6; VRE 6, ratio of MIC of vancomycin and MIC of analogue) was 1. For the same compound, the “MIC-fold improvement vs. vancomycin” value (MRSA KS89; MRSA KS8 (head; KS89 in title), ratio of MIC of vancomycin and MIC of analogue) was 1, the MIC (MRSA KS89; Staphylococcus aureus, MRSA) was 0.78 µM (≈ 1.13 µg/mL) and the “MBC relative to MIC” value (MRSA) was “MBC equaling their MIC values”. For the same compound, the “MIC-fold improvement vs. vancomycin” value (MRSA KS1; MRSA KS1, ratio of MIC of vancomycin and MIC of analogue) was 1 and the MIC (MRSA KS1; Staphylococcus aureus, MRSA) was 0.78 µM (≈ 1.13 µg/mL).
